Structures can show the parent of a compound that is named as a salt.

For the assay, the target named is T1, human factor VIIa and TF (factor VIIa/tissue factor) (Homo sapiens, UniProt P08709).
T1 construct: human factor VIIa and TF
T1 sequence (P08709 213-466 limits assumed): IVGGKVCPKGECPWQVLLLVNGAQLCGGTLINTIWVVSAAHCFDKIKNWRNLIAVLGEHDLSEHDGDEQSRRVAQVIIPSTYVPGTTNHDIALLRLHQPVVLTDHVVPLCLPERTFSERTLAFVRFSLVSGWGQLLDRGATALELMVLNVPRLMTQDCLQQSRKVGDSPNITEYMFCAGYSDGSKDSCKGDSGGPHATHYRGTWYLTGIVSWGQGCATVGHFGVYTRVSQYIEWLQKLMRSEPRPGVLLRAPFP
T1 sequence (P08709 61-212 limits assumed): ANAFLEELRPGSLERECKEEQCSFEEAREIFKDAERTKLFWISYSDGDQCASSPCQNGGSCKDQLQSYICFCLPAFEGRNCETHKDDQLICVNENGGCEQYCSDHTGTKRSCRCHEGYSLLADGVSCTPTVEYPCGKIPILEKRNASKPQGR
T1 sequence (P13726 33-295 partner): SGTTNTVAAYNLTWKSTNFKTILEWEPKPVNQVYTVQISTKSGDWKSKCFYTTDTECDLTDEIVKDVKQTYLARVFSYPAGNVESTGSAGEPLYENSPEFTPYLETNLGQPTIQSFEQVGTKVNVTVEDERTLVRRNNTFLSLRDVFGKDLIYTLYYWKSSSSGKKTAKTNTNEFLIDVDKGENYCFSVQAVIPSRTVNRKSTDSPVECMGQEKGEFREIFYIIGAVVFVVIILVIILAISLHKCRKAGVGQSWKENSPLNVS
Nature of the assay: Factor VIIa (FVIIa) chromogenic assay. The class given is biochemical. The settings on record: chromogenic substrate S-2288 500 μM; 5 nM FVIIa, 10 nM TF; 25° C.; 15 minute preincubation; pH 8.15. On the procedure:
The ability of the compounds of the formulae I and Ia to inhibit factor VIIa or other enzymes like factor Xa, thrombin, plasmin, or trypsin can be assessed by determining the concentration of the compound of the formulae I and Ia that inhibits enzyme activity by 50%, i. e. the IC50 value, which is related to the inhibition constant Ki. Purified enzymes are used in chromogenic assays. The concentration of inhibitor that causes a 50% decrease in the rate of substrate hydrolysis is determined by linear regression after plotting the relative rates of hydrolysis (compared to the uninhibited control) versus the log of the concentration of the compound of formulae I and Ia. For calculating the inhibition constant Ki, the IC50 value is corrected for competition with substrate using the formula Ki=IC50/{1+(substrate concentration/Km)} wherein Km is the Michaelis-Menten constant (Chen and Prusoff, Biochem. Pharmacol. 22 (1973), 3099-3108; I. H. Segal, Enzyme Kinetics, 1975, John Wiley & Sons, New York, 100-125; which are incorporated herein by reference).
Factor VIIa (FVIIa) Assay
The inhibitory activity (expressed as inhibition constant Ki(FVIIa)) of the compounds of formulae I and Ia towards factor VIIa/tissue factor activity was determined using a chromogenic assay essentially as described previously (J. A. Ostrem et al., Biochemistry 37 (1998) 1053-1059 which is incorporated herein by reference). Kinetic assays were conducted at 25° C. in half-area microtiter plates (Costar Corp., Cambridge, Ma.) using a kinetic plate reader (Molecular Devices Spectramax 250). A typical assay consisted of 25 μl human factor VIIa and TF (5 nM and 10 nM, respective final concentration) combined with 40 μl of inhibitor dilutions in 10% DMSO/TBS-PEG buffer (50 mM Tris, 15 mM NaCl, 5 mM CaCl2, 0.05% PEG 8000, pH 8.15). Following a 15 minute preincubation period, the assay was initiated by the addition of 35 μl of the chromogenic substrate S-2288 (D-Ile-Pro-Arg-p-nitroanilide, Pharmacia Hepar Inc., 500 μM final concentration).
One may read the Ki as a measure of affinity in units of concentration, obtained from inhibition or displacement. Low values mean tighter binding, high ones weaker binding. `C[C@H](NC(=O)CC(=O)Nc1ccc(C(=N)N)cc1)c1ccc(Oc2cncc(C(=O)O)c2)c(Br)c1` [Example 1, 5-(2-Bromo-4-{(S)-1-[2-(4-carbamimidoyl-phenylcarbamoyl)-acetylamino]-ethyl}-phenoxy)-nicotinic acid*acetic acid salt] returned a Ki of 41 nM. That is a double-digit nanomolar value.
To `CC(NC(=O)CC(=O)Nc1ccc(C(=N)N)cc1)c1ccc(Oc2cccc(CO)c2)c(Br)c1` (centres unmarked) [Example 2, N-{1-[3-Bromo-4-(3-hydroxymethyl-phenoxy)-phenyl]-ethyl}-N′-(4-carbamimidoyl-phenyl)-malonamide*trifluoro-acetic acid salt] belongs 171 nM.
The molecule `CC(NC(=O)CC(=O)Nc1ccc(C(=N)N)cc1)c1ccc(OCCCCCC(=O)O)c(Br)c1` (centres unmarked) [Example 3] came in with a Ki of 169 nM.
The value for `COCCOc1ccc([C@H](C)NC(=O)CC(=O)Nc2ccc(C(=N)N)cc2)cc1C(F)(F)F` [Example 10, N-(4-Carbamimidoyl-phenyl)-N′—{(S)-1-[4-(2-methoxy-ethoxy)-3-trifluoromethyl-phenyl]-ethyl}-malonamide] was 24 nM; that for `CC(C)OCCOc1ccc(C(C)NC(=O)CC(=O)Nc2ccc(C(=N)N)cc2)cc1C(F)(F)F` (centres unmarked) [Example 24] was 61 nM; that for `C[C@H](NC(=O)CC(=O)Nc1ccc(C(=N)N)cc1)c1ccc(OCCO)c(C(F)(F)F)c1` [Example 26] was 47 nM.
The value for `CC(NC(=O)CC(=O)Nc1ccc(C(=N)N)cc1)c1ccc(S(=O)(=O)N2CCOCC2)c(C(F)(F)F)c1` (centres unmarked) [Example 28, N-(4-Carbamimidoyl-phenyl)-N′-{1-[4-(morpholine-4-sulfonyl)-3-trifluoromethyl-phenyl]-ethyl}-malonamide*trifluoro-acetic acid salt] was 55 nM.
To `CC(NC(=O)CC(=O)Nc1ccc(C(=N)N)cc1)c1ccc(OCCCN2CCCC2=O)c(C(F)(F)F)c1` (centres unmarked) [Example 44] belongs 78 nM; to `COC1CCC(Oc2ccc(C(C)NC(=O)CC(=O)Nc3ccc(C(=N)N)cc3)cc2C(F)(F)F)CC1` (centres unmarked) [Example 50], 80 nM.
The molecule `CC(NC(=O)CC(=O)Nc1ccc(C(=N)N)cc1)c1ccc(OCCCCO)c(C(F)(F)F)c1` (centres unmarked) [Example 51] displayed a Ki of 122 nM. Against the preceding molecule, the Ki is about 1.5-fold higher.
Take `CC(NC(=O)CC(=O)Nc1ccc(C(=N)N)cc1)c1ccc(OCc2ccoc2)c(Br)c1` (centres unmarked) [Example 52]: the inhibitory constant (Ki) worked out at 87 nM. This Ki and that of the molecule before are within 1.5-fold of each other.
To `Cc1ncsc1CCOc1ccc(C(C)NC(=O)CC(=O)Nc2ccc(C(=N)N)cc2)cc1Br` (centres unmarked) [Example 61] belongs 87 nM.
The value for `CC(NC(=O)CC(=O)Nc1ccc(C(=N)N)cc1)c1ccc(S(=O)(=O)Cc2ccncc2)c(Cl)c1` (centres unmarked) [Example 67] was 588 nM; that for `CC(NC(=O)CC(=O)Nc1ccc(C(=N)N)cc1)c1ccc(S(=O)(=O)c2ccncc2)c(C(F)(F)F)c1` (centres unmarked) [Example 74, N-(4-Carbamimidoyl-phenyl)-N′-{1-[4-(pyridine-4-sulfonyl)-3-trifluoromethyl-phenyl]-ethyl}-malonamide*trifluoro-acetic acid salt] was 36 nM; that for `COCCNS(=O)(=O)c1ccc([C@H](C)NC(=O)CC(=O)Nc2ccc(C(=N)N)cc2)cc1C(F)(F)F` [Example 75] was 37 nM.
The molecule `COCCN(C)S(=O)(=O)c1ccc([C@H](C)NC(=O)CC(=O)Nc2ccc(C(=N)N)cc2)cc1C(F)(F)F` [Example 76] had a Ki of 27 nM.
To `C[C@H](NC(=O)CC(=O)Nc1ccc(C(=N)N)cc1)c1ccc(S(=O)(=O)N2CCOC[C@@H]2C)c(C(F)(F)F)c1` [Example 112] belongs 29 nM; to `C[C@H](NC(=O)CC(=O)Nc1ccc(C(=N)N)cc1)c1ccc(OC2CCOCC2)c(-c2ccc(Cl)s2)c1` [Example 113], 7 nM; to `C[C@H](NC(=O)CC(=O)Nc1ccc(C(=N)N)cc1)c1ccc(S(=O)(=O)N2CCOCC2)c(Br)c1` [Example 117], 30 nM.
The value for “N-(4-Carbamimidoyl-phenyl)-N′—[(S)-1-(3-trifluoromethanesulfonyl-phenyl)-ethyl]-malonamide*trifluoro-acetic acid salt [Example 77]” was 99 nM.

Values taken from patent US8143242B2, “Malonamide derivatives with antithrombotic activity” (Sanofi-Aventis, priority 2007, dated 2012).
